Data from patent US20210346459A1, “Application of Dalargin for the prevention of VRIs and prevention of the development of complications during VRIs” (priority 2020, published 2021).
Square brackets hold non-standard residues; d marks the D form. Peptide text beside a SMILES is read from it.

How the values were obtained:
[1] = Effect of low pH acetate buffer on antiviral and immunotropic activity; settings: low pH acetate-based buffer solution; nose, nasopharynx, oropharynx, oral cavity or sublingual
Excerpt: The preferred type of buffer salts is acetate buffer, which contains sodium acetate and acetic acid, with a preferred pH value of 4.0-5.5. Citrate buffer can also be used. […] Additionally, a physiologically active buffer on the basis of sodium hydrogen phosphate dihydrate and sodium dihydrogen phosphate dihydrate can be used; however, this buffer is not sufficiently efficient in the pH range from 4.0 to 5.5 in terms of its buffer capacity.

[2] = tested on: influenza; assay type: in vivo, human; settings: Example 9, 4 relatives; 0.02% solution inhaled once a day, 1 mg/day; 7 days
[3] = in vitro; settings: dog

CC(C)C[C@H](NC(=O)[C@H](Cc1ccccc1)NC(=O)CNC(=O)[C@@H](C)NC(=O)[C@@H](N)Cc1ccc(O)cc1)C(=O)N[C@@H](CCCNC(=N)N)C(=O)O [Dalargin, tyrosyl-D-alanyl-glycyl-phenylalanyl-leucyl-arginine diacetate] (H-Y[dA]GFLR-OH)
Fold higher specific antiviral and immunotropic activity [1]: 2-4 times
Signs or symptoms of influenza in household contacts [2]: None of the relatives of patient V who were in contact with them exhibited catarrhal signs, hyperthermia or other signs or symptoms of influenza
CC50 [3]: ≥ 30 µg/mL
